Experimental data reported in ChEMBL document CHEMBL5038653, “A Brain-Penetrant and Bioavailable Pyrazolopiperazine BACE1 Inhibitor Elicits Sustained Reduction of Amyloid β In Vivo” (ACS Med Chem Lett, 2022).

Columns and labels:
[1] = In vivo inhibition of BACE1 in Beagle dog assessed as reduction of amyloid beta (1 to 42 residues) levels in CSF at 5 mg/kg, po measured at 8 to 24 hrs; assay type: functional, Canis lupus familiaris; design: scale not given: the % may be the effect or the level left; conditions: time 8-24 hrs
hERG (KCNH2) = hERG (KCNH2) (Homo sapiens, UniProt Q12809); experiment: Inhibition of hERG expressed in HEK293 cells at 3 uM at -80 mV holding potential by automated patch-clamp method; assay type: toxicity, cell-based; conditions: HEK293 cells expressing hERG
Cytochrome P450 2D6 = Cytochrome P450 2D6 (Homo sapiens, UniProt P10635); experiment: Inhibition of human CYP2D6 by fluorescence plate reader analysis; assay type: ADME
Beta-secretase 1 = Beta-secretase 1 (Homo sapiens, UniProt P56817); experiment: Inhibition of BACE1 (1 to 454 residues) (unknown origin) using APP harboring Swedish Lys/Met mutant-derived peptide as substrate by FRET assay
[2] = Ratio of apparent permeability across apical to basolateral side in the presence of P-gp inhibitor elacridar to the absence of P-gp inhibitor elacridar in dog MDCK-MDR1 cells at 5 uM incubated for 120 mins; assay type: ADME, cell-based, Canis lupus familiaris; conditions: 2 h
[3] = biological target: Voltage-gated inwardly rectifying potassium channel KCNH2 (Homo sapiens, UniProt Q12809); experiment: Inhibition of hERG expressed in HEK293 cells at -80 mV holding potential by automated patch-clamp method; assay type: toxicity, cell-based
[4] = Dissociation constant, pKa of the compound by fast UV-spectrometric titration analysis; assay type: physicochemical
[5] = Free drug concentration in human plasma measured after 4.5 hrs by HPLC-MS/MS method; assay type: ADME, cell-free
[6] = Free drug concentration in dog plasma measured after 4.5 hrs by HPLC-MS/MS method; assay type: ADME, cell-free, Canis lupus familiaris
[7] = In vivo inhibition of BACE1 in Beagle dog assessed as reduction of amyloid beta (1 to 42 residues) levels in CSF at 2.5 mg/kg, po measured after 8 hrs by electrochemiluminescence assay; assay type: functional, Canis lupus familiaris; design: scale not given: the % may be the effect or the level left
[8] = Drug level in CD-1 mouse brain at 10 mg/kg, po measured at 1 hr post dose; assay type: ADME, organism-based; conditions: read-out: Ct
[9] = Ratio of unbound drug concentration in brain to blood in CD-1 mouse at 10 mg/kg, po measured at 1 hr post dose; assay type: ADME, organism-based
[10] = AUC (0 to infinity) in dog at 0.25 mg/kg, iv; assay type: ADME, organism-based, Canis lupus familiaris; design: route intravenous, time infinity, dose 0.25 mg/kg; conditions: in vivo
[11] = Clearance in mouse plasma at 0.28 mg/kg, iv; assay type: ADME, organism-based
[12] = Clearance in dog plasma at 0.25 mg/kg, iv; assay type: ADME, organism-based, Canis lupus familiaris
[13] = Clearance in mouse at 0.28 mg/kg, iv relative to liver blood flow; assay type: ADME, organism-based; conditions: in vivo
[14] = Volume of distribution at steady state in dog at 0.25 mg/kg, iv; assay type: ADME, organism-based, Canis lupus familiaris; conditions: in vivo, read-out: Vdss
[15] = Half life in rat at 0.25 mg/kg, iv; assay type: ADME, organism-based; conditions: in vivo
[16] = Half life in dog at 0.25 mg/kg, iv; assay type: ADME, organism-based, Canis lupus familiaris; conditions: in vivo
[17] = Cmax in mouse at 2.1 mg/kg, po; assay type: ADME, organism-based; design: route oral, dose 2.1 mg/kg; conditions: in vivo
[18] = Cmax in dog at 2.5 mg/kg, po; assay type: ADME, organism-based, Canis lupus familiaris; design: route oral, dose 2.5 mg/kg; conditions: in vivo
[19] = Tmax in rat at 2.3 mg/kg, po; assay type: ADME, organism-based; conditions: in vivo
[20] = Tmax in dog at 2.5 mg/kg, po; assay type: ADME, organism-based, Canis lupus familiaris; conditions: in vivo
[21] = AUC (0 to last) in mouse at 2.1 mg/kg, po; assay type: ADME, organism-based; design: route oral, time 0 - last, dose 2.1 mg/kg; conditions: in vivo
[22] = Oral bioavailability in mouse at 2.1 mg/kg; assay type: ADME, organism-based; conditions: in vivo
[23] = Drug level in CD-1 mouse brain at 10 mg/kg, po measured at 2 hr post dose; assay type: ADME, organism-based; conditions: read-out: Ct
[24] = Ratio of unbound drug concentration in brain to blood in CD-1 mouse at 10 mg/kg, po measured at 2 hr post dose; assay type: ADME, organism-based
[25] = Ratio of unbound drug concentration in brain to blood in CD-1 mouse at 10 mg/kg, po measured at 4 hr post dose; assay type: ADME, organism-based
Cytochrome P450 3A4 [26] = biological target: T1, Cytochrome P450 3A4 (Homo sapiens, UniProt P08684); experiment: Inhibition of human CYP3A4 using testosterone as substrate by fluorescence plate reader analysis; assay type: ADME
Cytochrome P450 3A4 [27] = biological target: T1, Cytochrome P450 3A4; experiment: Inhibition of human CYP3A4 using midazolam as substrate by fluorescence plate reader analysis; assay type: ADME
Cytochrome P450 2C8 = biological target: T2, Cytochrome P450 2C8 (Homo sapiens, UniProt P10632); experiment: Inhibition of human CYP2C8 by fluorescence plate reader analysis; assay type: ADME
T2 sequence (P10632 whole entry): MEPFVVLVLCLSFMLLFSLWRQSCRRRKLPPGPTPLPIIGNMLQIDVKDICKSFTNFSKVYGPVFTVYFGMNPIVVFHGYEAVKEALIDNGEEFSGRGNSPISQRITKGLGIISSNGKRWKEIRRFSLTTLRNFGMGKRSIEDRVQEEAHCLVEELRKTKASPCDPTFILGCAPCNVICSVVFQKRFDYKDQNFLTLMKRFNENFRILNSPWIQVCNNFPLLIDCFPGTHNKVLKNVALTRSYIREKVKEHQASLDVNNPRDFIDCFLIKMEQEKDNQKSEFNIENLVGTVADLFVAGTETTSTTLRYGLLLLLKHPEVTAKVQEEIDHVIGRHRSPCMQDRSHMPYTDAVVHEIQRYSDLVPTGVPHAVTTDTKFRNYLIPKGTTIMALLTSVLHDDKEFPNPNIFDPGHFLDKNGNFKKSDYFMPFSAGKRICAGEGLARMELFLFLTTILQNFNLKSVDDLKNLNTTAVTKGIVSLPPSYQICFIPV

Cytochrome P450 2C9 = Cytochrome P450 2C9 (Homo sapiens, UniProt P11712); experiment: Inhibition of human CYP2C9 by fluorescence plate reader analysis; assay type: ADME
[28] = Toxicity in Beagle dog assessed as clinical pathological changes at 0.31 to 5 mg/kg, po; assay type: organism-based, Canis lupus familiaris; conditions: in vivo, dose 0.31-5 mg/kg
[29] = In vivo inhibition of CD-1 mouse assessed as remaining amyloid beta (1 to 42 residues) levels in CSF at 10 mg/kg, po measured at 1 hr; assay type: functional
[30] = In vivo inhibition of CD-1 mouse assessed as remaining amyloid beta (1 to 42 residues) levels in CSF at 10 mg/kg, po measured at 2 hrs; assay type: functional
[31] = In vivo inhibition of CD-1 mouse assessed as remaining amyloid beta (1 to 42 residues) levels in CSF at 10 mg/kg, po measured at 4 hrs; assay type: functional

T1 sequence (P08684 whole entry): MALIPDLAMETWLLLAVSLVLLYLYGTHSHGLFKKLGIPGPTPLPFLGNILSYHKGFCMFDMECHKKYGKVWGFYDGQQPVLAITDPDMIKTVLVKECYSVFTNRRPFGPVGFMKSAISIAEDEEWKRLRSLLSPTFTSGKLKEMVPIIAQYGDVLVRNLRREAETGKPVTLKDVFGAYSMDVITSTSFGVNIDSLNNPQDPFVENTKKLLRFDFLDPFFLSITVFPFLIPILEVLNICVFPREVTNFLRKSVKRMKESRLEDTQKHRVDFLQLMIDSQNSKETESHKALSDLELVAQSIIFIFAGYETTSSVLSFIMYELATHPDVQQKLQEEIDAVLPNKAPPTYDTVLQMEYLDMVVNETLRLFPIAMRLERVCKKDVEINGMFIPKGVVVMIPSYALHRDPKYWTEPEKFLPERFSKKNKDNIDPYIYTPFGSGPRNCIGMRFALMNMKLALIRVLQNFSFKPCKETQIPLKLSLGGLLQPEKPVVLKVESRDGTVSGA
Chain of Cytochrome P450 2C9 (P11712 whole entry): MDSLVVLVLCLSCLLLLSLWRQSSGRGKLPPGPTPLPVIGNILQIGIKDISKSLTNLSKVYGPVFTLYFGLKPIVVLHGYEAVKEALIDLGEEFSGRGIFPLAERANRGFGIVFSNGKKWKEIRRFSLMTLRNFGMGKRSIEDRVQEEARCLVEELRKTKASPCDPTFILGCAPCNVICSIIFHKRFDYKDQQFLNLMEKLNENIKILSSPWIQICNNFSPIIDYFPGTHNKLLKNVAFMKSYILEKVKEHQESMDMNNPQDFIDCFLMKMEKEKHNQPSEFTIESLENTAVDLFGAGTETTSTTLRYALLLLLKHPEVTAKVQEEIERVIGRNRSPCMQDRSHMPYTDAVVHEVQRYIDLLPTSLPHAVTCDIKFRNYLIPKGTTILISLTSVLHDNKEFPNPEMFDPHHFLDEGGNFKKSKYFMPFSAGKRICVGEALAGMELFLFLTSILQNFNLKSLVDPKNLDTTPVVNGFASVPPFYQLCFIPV
Chain of Cytochrome P450 2D6 (P10635 whole entry, the tested form may be a part): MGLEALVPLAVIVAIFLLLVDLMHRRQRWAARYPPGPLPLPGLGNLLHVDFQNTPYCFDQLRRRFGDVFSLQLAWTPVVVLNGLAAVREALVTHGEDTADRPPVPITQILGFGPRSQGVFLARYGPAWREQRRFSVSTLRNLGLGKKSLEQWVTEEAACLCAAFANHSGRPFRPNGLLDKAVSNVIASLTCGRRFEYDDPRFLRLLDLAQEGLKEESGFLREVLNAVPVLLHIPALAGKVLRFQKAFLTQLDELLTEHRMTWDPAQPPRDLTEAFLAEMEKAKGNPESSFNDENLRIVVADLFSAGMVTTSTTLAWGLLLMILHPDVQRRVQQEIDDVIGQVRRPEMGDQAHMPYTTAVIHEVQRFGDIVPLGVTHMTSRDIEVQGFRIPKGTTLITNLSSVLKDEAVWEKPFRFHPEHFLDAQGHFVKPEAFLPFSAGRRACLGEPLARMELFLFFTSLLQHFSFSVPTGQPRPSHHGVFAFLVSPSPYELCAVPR
Chain of Voltage-gated inwardly rectifying potassium channel KCNH2 (Q12809 whole entry): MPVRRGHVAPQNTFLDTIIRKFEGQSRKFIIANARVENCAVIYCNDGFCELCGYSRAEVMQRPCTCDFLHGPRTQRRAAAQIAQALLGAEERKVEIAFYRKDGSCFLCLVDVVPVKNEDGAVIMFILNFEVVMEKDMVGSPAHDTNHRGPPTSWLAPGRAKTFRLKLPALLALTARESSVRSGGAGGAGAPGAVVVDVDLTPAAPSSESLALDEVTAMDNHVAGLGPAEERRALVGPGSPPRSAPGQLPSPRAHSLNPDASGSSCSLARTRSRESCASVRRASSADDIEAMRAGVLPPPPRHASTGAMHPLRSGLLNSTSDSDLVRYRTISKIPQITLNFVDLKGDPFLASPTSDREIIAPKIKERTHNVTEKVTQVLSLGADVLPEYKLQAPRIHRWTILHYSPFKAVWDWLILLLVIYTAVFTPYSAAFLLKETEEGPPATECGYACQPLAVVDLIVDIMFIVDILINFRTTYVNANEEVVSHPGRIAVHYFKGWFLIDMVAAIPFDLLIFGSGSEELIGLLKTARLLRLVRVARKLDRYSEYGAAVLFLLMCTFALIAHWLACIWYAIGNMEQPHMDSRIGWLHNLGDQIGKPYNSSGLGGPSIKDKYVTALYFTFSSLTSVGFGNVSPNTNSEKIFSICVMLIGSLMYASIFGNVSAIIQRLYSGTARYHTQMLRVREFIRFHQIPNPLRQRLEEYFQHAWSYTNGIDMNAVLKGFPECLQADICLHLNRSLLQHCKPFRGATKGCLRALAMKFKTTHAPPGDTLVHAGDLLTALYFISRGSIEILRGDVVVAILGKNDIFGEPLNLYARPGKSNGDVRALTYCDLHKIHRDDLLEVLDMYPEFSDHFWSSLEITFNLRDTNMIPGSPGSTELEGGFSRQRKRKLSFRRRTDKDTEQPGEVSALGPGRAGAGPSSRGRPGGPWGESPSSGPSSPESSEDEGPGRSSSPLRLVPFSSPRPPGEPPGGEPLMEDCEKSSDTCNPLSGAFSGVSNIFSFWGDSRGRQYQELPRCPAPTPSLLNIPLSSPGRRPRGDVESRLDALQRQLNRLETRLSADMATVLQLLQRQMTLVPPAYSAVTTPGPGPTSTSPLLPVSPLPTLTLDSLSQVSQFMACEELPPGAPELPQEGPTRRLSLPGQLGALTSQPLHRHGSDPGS
Chain of hERG (KCNH2) (Q12809 whole entry): as above
Chain of Beta-secretase 1 (P56817 whole entry, the tested form may be a part): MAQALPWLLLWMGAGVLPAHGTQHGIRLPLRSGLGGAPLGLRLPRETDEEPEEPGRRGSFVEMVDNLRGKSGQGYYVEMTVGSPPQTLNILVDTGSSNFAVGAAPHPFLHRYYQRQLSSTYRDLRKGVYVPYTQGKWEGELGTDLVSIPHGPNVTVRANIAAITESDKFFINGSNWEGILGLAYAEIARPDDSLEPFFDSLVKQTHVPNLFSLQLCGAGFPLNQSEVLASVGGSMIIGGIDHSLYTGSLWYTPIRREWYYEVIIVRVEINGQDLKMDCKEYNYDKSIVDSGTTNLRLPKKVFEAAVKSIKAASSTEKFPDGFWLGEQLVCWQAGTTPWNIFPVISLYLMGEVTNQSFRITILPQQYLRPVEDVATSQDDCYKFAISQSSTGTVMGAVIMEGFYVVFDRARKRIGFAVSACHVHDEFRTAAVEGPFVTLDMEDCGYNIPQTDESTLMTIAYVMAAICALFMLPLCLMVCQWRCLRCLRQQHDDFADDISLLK

With `COc1cnc(C(=O)Nc2ccc(F)c([C@]3(C)Cn4nc(C#N)cc4C(N)=N3)c2)cn1` the Activity [1] was 80%, the inhibition at 3 µM (hERG (KCNH2)) was 48% and the IC50 (Cytochrome P450 2D6) was greater than 30 µM. For the same molecule, the IC50 (Beta-secretase 1) was 0.0029 µM, the Ratio [2] was 1.56 and the IC50 [3] was greater than 10 µM. It also gave a pKa [4] of 7.1, a fraction unbound at 4.5 h [5] of 0.28 and a fraction unbound at 4.5 h [6] of 0.24. The Activity [7] was 85%, the concentration at 1 h [8] was 621 ng/g and the Kp uu at 1 h [9] was 0.3. For the same molecule, the AUC [10] was 654 ng·h/mL, the clearance [11] was 23 mL/min/kg and the clearance [12] was 6 mL/min/kg. It also gave a CL [13] of 25%, a Vd [14] of 4.2 L/kg and a half-life [15] of 4.3 h. For the same molecule, the half-life [16] was 7.7 h, the Cmax [17] was 160 ng/mL and the Cmax [18] was 352 ng/mL. The Tmax [19] was 5 h, the Tmax [20] was 2.3 h and the AUClast [21] was 1910 ng·h/mL. For the same molecule, the bioavailability [22] was greater than 100%, the concentration at 2 h [23] was 888 ng/g and the Kp uu at 2 h [24] was 0.29. For the same molecule, the Kp uu at 4 h [25] was 0.22, the IC50 (Cytochrome P450 3A4 [26]) was greater than 30 µM and the IC50 (Cytochrome P450 3A4 [27]) was greater than 30 µM. For the same molecule, the IC50 (Cytochrome P450 2C8) was greater than 30 µM, the IC50 (Cytochrome P450 2C9) was greater than 30 µM and the Activity [28] was “Non-Toxic”. For the same molecule, the Activity [29] was 74%, the Activity [30] was 53% and the Activity [31] was 45%.
